Laboratory results taken from patent US8933079B2, “Pyridone and pyridazinone derivatives as anti-obesity agents” (Boehringer Ingelheim International GmbH, priority 2012, dated 2015).

Molecular target: hMCH-1R (Homo sapiens (Human), UniProt Q99705)
Assay: MCH-1 receptor binding test (125I-MCH binding to hMCH-1R transfected cell membranes)
Settings: competition with 100 pM 125I-MCH, membranes of CHO/Galpha16 cells stably transfected with hMCH-1R
Experimental: Res Commun. […] After the incubation the reaction is filtered using a cell harvester through 0.5% PEI treated fibreglass filters (GF/B, Unifilter Packard). The membrane-bound radioactivity retained on the filter is then determined after the addition of scintillator substance (Packard Microscint 20) in a measuring device (TopCount of Packard). […] The analysis of the concentration binding curve is carried out on the assumption of one receptor binding site.

Sequence of hMCH-1R (Q99705 whole entry): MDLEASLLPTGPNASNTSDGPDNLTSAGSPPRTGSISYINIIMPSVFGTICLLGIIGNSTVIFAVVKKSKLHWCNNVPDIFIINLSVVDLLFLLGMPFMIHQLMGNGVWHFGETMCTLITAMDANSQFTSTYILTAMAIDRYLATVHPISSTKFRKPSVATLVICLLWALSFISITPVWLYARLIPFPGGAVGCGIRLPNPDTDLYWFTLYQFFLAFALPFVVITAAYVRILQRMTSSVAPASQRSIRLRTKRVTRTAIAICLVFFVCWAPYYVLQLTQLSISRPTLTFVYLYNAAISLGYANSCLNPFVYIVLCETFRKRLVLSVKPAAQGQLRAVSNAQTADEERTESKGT

Point of comparison: `CCN1CCN(Cc2ccc(C(=O)Cn3ccc(OCc4ccc(Cl)cn4)cc3=O)c(C)c2)CC1` [Example 3.1, 4-(5-Chloro-pyridin-2-ylmethoxy)-1-{2-[4-(4-ethyl-piperazin-1-ylmethyl)-2-methyl-phenyl]-2-oxo-ethyl}-1H-pyridin-2-one], IC50 79 nM. Against it:
- Cc1cc(CN2CC(O)C2)ccc1C(=O)Cn1ccc(OCc2ccccc2)cc1=O [Example 1.1, 4-Benzyloxy-1-{2-[4-(3-hydroxy-azetidin-1-ylmethyl)-2-methyl-phenyl]-2-oxo-ethyl}-1H-pyridin-2-one] — 4-fold lower, 20 nM
- CNCc1ccc(C(=O)Cn2ccc(OCc3ccccc3)cc2=O)c(C)c1 [Example 1.2, 4-Benzyloxy-1-[2-(2-methyl-4-methylaminomethyl-phenyl)-2-oxo-ethyl]-1H-pyridin-2-one] — 4.2-fold lower, 19 nM
- Cc1cc(CN2CCC(O)CC2)ccc1C(=O)Cn1ccc(OCc2ccccc2)cc1=O [Example 1.3, 4-Benzyloxy-1-{2-[4-(4-hydroxy-piperidin-1-ylmethyl)-2-methyl-phenyl]-2-oxo-ethyl}-1H-pyridin-2-one] — 4.2-fold lower, 19 nM
- Cc1cc(CN2CCOCC2)ccc1C(=O)Cn1ccc(OCc2ccccc2)cc1=O [Example 1.4] — 2-fold lower, 40 nM
- Cc1cc(CN2CCN(C)CC2)ccc1C(=O)Cn1ccc(OCc2ccccc2)cc1=O [Example 1.5, 4-Benzyloxy-1-{2-[2-methyl-4-(4-methyl-piperazin-1-ylmethyl)-phenyl]-2-oxo-ethyl}-1H-pyridin-2-one] — 1.6-fold lower, 48 nM
- Cc1cc(CN2CCC(CO)CC2)ccc1C(=O)Cn1ccc(OCc2ccccc2)cc1=O [Example 1.6, 4-Benzyloxy-1-{2-[4-(4-hydroxymethyl-piperidin-1-ylmethyl)-2-methyl-phenyl]-2-oxo-ethyl}-1H-pyridin-2-one] — 3.3-fold lower, 24 nM
- Cc1cc(CN2CCCC2)ccc1C(=O)Cn1ccc(OCc2ccccc2)cc1=O [Example 1.7, 4-Benzyloxy-1-[2-(2-methyl-4-pyrrolidin-1-ylmethyl-phenyl)-2-oxo-ethyl]-1H-pyridin-2-one] — 7.2-fold lower, 11 nM
- Cc1cc(CN2CCCCC2)ccc1C(=O)Cn1ccc(OCc2ccccc2)cc1=O [Example 1.9] — 7.2-fold lower, 11 nM
- Cc1cc(CN2CCC(C)(O)C2)ccc1C(=O)Cn1ccc(OCc2ccccc2)cc1=O (centres unmarked) [Example 1.10, 4-Benzyloxy-1-{2-[4-(3-hydroxy-3-methyl-pyrrolidin-1-ylmethyl)-2-methyl-phenyl]-2-oxo-ethyl}-1H-pyridin-2-one] — 3-fold lower, 26 nM
- Cc1cc(CN2CC[C@H](O)C2)ccc1C(=O)Cn1ccc(OCc2ccccc2)cc1=O [Example 1.11, (S)-4-Benzyloxy-1-{2-[4-(3-hydroxy-pyrrolidin-1-ylmethyl)-2-methyl-phenyl]-2-oxo-ethyl}-1H-pyridin-2-one] — 2.6-fold lower, 30 nM
- CCNCc1ccc(C(=O)Cn2ccc(OCc3ccccc3)cc2=O)c(C)c1 [Example 1.12, 4-Benzyloxy-1-[2-(4-ethylaminomethyl-2-methyl-phenyl)-2-oxo-ethyl]-1H-pyridin-2-one] — 3.8-fold lower, 21 nM
- Cc1cc(CN2CCC[C@H](O)C2)ccc1C(=O)Cn1ccc(OCc2ccccc2)cc1=O [Example 1.13, (S)-4-Benzyloxy-1-{2-[4-(3-hydroxy-piperidin-1-ylmethyl)-2-methyl-phenyl]-2-oxo-ethyl}-1H-pyridin-2-one] — 2.7-fold lower, 29 nM
- Cc1cc(CN2CC[C@@H](O)C2)ccc1C(=O)Cn1ccc(OCc2ccccc2)cc1=O [Example 1.14] — within 1.5-fold, 53 nM
- Cc1cc(CN2CCC[C@@H](O)C2)ccc1C(=O)Cn1ccc(OCc2ccccc2)cc1=O [Example 1.15, (R)-4-Benzyloxy-1-{2-[4-(3-hydroxy-piperidin-1-ylmethyl)-2-methyl-phenyl]-2-oxo-ethyl}-1H-pyridin-2-one] — 2.5-fold lower, 31 nM
- Cc1cc(CN2CCCC[C@@H]2CO)ccc1C(=O)Cn1ccc(OCc2ccccc2)cc1=O [Example 1.16] — 2.7-fold lower, 29 nM
- Cc1cc(CN2CCC[C@H]2CO)ccc1C(=O)Cn1ccc(OCc2ccccc2)cc1=O [Example 1.17, (S)-4-Benzyloxy-1-{2-[4-(2-hydroxymethyl-pyrrolidin-1-ylmethyl)-2-methyl-phenyl]-2-oxo-ethyl}-1H-pyridin-2-one] — 3-fold lower, 26 nM
- Cc1cc(CN2CC3CC(C2)C3O)ccc1C(=O)Cn1ccc(OCc2ccccc2)cc1=O (centres unmarked) [Example 1.18] — 4.9-fold lower, 16 nM
- Cc1cc(CN2CCCC2)ccc1C(=O)Cn1ccc(OCc2ccc(F)cn2)cc1=O [Example 2.1, 4-(5-Fluoro-pyridin-2-ylmethoxy)-1-[2-(2-methyl-4-pyrrolidin-1-ylmethyl-phenyl)-2-oxo-ethyl]-1H-pyridin-2-one] — within 1.5-fold, 67 nM
- Cc1cc(CN2CCCCC2)ccc1C(=O)Cn1ccc(OCc2ccc(F)cn2)cc1=O [Example 2.2] — within 1.5-fold, 116 nM
- Cc1cc(CN2CCC(O)CC2)ccc1C(=O)Cn1ccc(OCc2ccc(F)cn2)cc1=O [Example 2.3] — within 1.5-fold, 93 nM
- Cc1cc(CN2CC[C@H](O)C2)ccc1C(=O)Cn1ccc(OCc2ccc(F)cn2)cc1=O [Example 2.4] — within 1.5-fold, 70 nM
- Cc1cc(CN(C)C)ccc1C(=O)Cn1ccc(OCc2ccc(F)cn2)cc1=O [Example 2.5] — within 1.5-fold, 70 nM
- CCNCc1ccc(C(=O)Cn2ccc(OCc3ccc(F)cn3)cc2=O)c(C)c1 [Example 2.6] — 1.7-fold higher, 134 nM
- Cc1cc(CN2CCC[C@H]2CO)ccc1C(=O)Cn1ccc(OCc2ccc(Cl)cn2)cc1=O [Example 3.2, 4-(5-Chloro-pyridin-2-ylmethoxy)-1-{2-[4-((S)-2-hydroxymethyl-pyrrolidin-1-ylmethyl)-2-methyl-phenyl]-2-oxo-ethyl}-1H-pyridin-2-one] — 2.2-fold lower, 36 nM
- Cc1cc(CN2CC[C@H](O)C2)ccc1C(=O)Cn1ccc(OCc2ccc(Cl)cn2)cc1=O [Example 3.3] — 2-fold lower, 39 nM
- Cc1cc(CN2CC[C@@H](O)C2)ccc1C(=O)Cn1ccc(OCc2ccc(Cl)cn2)cc1=O [Example 3.4, (R)-4-(5-Chloro-pyridin-2-ylmethoxy)-1-{2-[4-(3-hydroxy-pyrrolidin-1-ylmethyl)-2-methyl-phenyl]-2-oxo-ethyl}-1H-pyridin-2-one] — 2.1-fold lower, 38 nM
- Cc1cc(CN2CCN(C)CC2)ccc1C(=O)Cn1ccc(OCc2ccc(Cl)cn2)cc1=O [Example 3.5] — within 1.5-fold, 84 nM
- Cc1cc(CN2CCCCC2)ccc1C(=O)Cn1ccc(OCc2ccc(Cl)cn2)cc1=O [Example 3.6] — 3-fold lower, 26 nM
- Cc1cc(CN2CCC(O)CC2)ccc1C(=O)Cn1ccc(OCc2ccc(Cl)cn2)cc1=O [Example 3.7] — 2.2-fold lower, 36 nM
- Cc1cc(CN2CCCC2)ccc1C(=O)Cn1ccc(OCc2ccc(Cl)cn2)cc1=O [Example 3.8, 4-(5-Chloro-pyridin-2-ylmethoxy)-1-[2-(2-methyl-4-pyrrolidin-1-ylmethyl-phenyl)-2-oxo-ethyl]-1H-pyridin-2-one] — 3-fold lower, 26 nM
- CNCc1ccc(C(=O)Cn2ccc(OCc3ccc(Cl)cn3)cc2=O)c(C)c1 [Example 3.10] — 2.1-fold lower, 37 nM
- CCNCc1ccc(C(=O)Cn2ccc(OCc3ccc(Cl)cn3)cc2=O)c(C)c1 [Example 3.11, 4-(5-Chloro-pyridin-2-ylmethoxy)-1-[2-(4-ethylaminomethyl-2-methyl-phenyl)-2-oxo-ethyl]-1H-pyridin-2-one] — 3-fold lower, 26 nM
- Cc1cc(CN2CCC(CO)CC2)ccc1C(=O)Cn1ccc(OCc2ccc(Cl)cn2)cc1=O [Example 3.12] — 2.3-fold lower, 34 nM
- Cc1cc(CN2CCC[C@@H](O)C2)ccc1C(=O)Cn1ccc(OCc2ccc(Cl)cn2)cc1=O [Example 3.13, (R)-4-(5-Chloro-pyridin-2-ylmethoxy)-1-{2-[4-(3-hydroxy-piperidin-1-ylmethyl)-2-methyl-pheny]-2-oxo-ethyl}-1H-pyridin-2-one] — 2.3-fold lower, 34 nM
- Cc1cc(CN2CCCC[C@@H]2CO)ccc1C(=O)Cn1ccc(OCc2ccc(Cl)cn2)cc1=O [Example 3.14] — 2.1-fold lower, 37 nM
- Cc1cc(CN2CC(O)C2)ccc1C(=O)Cn1ccc(OCc2ccc(Cl)cn2)cc1=O [Example 3.15, 4-(5-Chloro-pyridin-2-ylmethoxy)-1-{2-[4-(3-hydroxy-azetidin-1-ylmethyl)-2-methyl-phenyl]-2-oxo-ethyl}-1H-pyridin-2-one] — 2.5-fold lower, 31 nM
- Cc1cc(CN2CC3CC(C2)C3O)ccc1C(=O)Cn1ccc(OCc2ccc(Cl)cn2)cc1=O (centres unmarked) [Example 3.16] — 4.2-fold lower, 19 nM
- Cc1cc(CN2CCC(O)CC2)ccc1C(=O)Cn1ccc(OCc2ccc(Br)cn2)cc1=O [Example 4.2, 4-(5-Bromo-pyridin-2-ylmethoxy)-1-{2-[4-(4-hydroxy-piperidin-1-ylmethyl)-2-methyl-phenyl]-2-oxo-ethyl}-1H-pyridin-2-one] — 4.9-fold lower, 16 nM
- Cc1cc(CN2CCC(CO)CC2)ccc1C(=O)Cn1ccc(OCc2ccc(Br)cn2)cc1=O [Example 4.3, 4-(5-Bromo-pyridin-2-ylmethoxy)-1-{2-[4-(4-hydroxymethyl-piperidin-1-ylmethyl)-2-methyl-phenyl]-2-oxo-ethyl}-1H-pyridin-2-one] — 6.1-fold lower, 13 nM
- Cc1cc(CN2CCC[C@H](O)C2)ccc1C(=O)Cn1ccc(OCc2ccc(Br)cn2)cc1=O [Example 4.4, (S)-4-(5-Bromo-pyridin-2-ylmethoxy)-1-{2-[4-(3-hydroxy-piperidin-1-ylmethyl)-2-methyl-phenyl]-2-oxo-ethyl}-1H-pyridin-2-one] — 4.4-fold lower, 18 nM
- Cc1cc(CN2CCC[C@H]2CO)ccc1C(=O)Cn1ccc(OCc2ccc(Br)cn2)cc1=O [Example 4.5, (S)-4-(5-Bromo-pyridin-2-ylmethoxy)-1-{2-[4-(2-hydroxymethyl-pyrrolidin-1-ylmethyl)-2-methyl-phenyl]-2-oxo-ethyl}-1H-pyridin-2-one] — 6.1-fold lower, 13 nM
- CCNCc1ccc(C(=O)Cn2ccc(OCc3ccc(Br)cn3)cc2=O)c(C)c1 [Example 4.6, 4-(5-Bromo-pyridin-2-ylmethoxy)-1-[2-(4-ethylaminomethyl-2-methyl-phenyl)-2-oxo-ethyl]-1H-pyridin-2-one] — 1.6-fold lower, 50 nM
- Cc1cc(CN2CCCC[C@@H]2CO)ccc1C(=O)Cn1ccc(OCc2ccc(Br)cn2)cc1=O [Example 4.7, (R)-4-(5-Bromo-pyridin-2-ylmethoxy)-1-{2-[4-(2-hydroxymethyl-piperidin-1-ylmethyl)-2-methyl-phenyl]-2-oxo-ethyl}-1H-pyridin-2-one] — 5.6-fold lower, 14 nM
